Data set [1] relates to Vero C1008. The data set can be described thus: (§1) Cytotoxicity of compound against Vero E6 cells by MTT assay. The settings on record: chlorocebus sabaeus, vero c1008.
Data set [2] in a line: as §1. The following applies: chlorocebus sabaeus, Vero E6 cells.
For data set [3], the system named is Vero C1008. In words: AUC (cytotoxicity %) of compound against Vero E6 cells by MTT assay. The following applies: chlorocebus sabaeus. In kind it is toxicity, cell-based.
The subject of data set [4] is SARS-CoV-2. The settings on record: Chlorocebus sabaeus; Vero C1008.
The subject of data set [5] is SARS-CoV-2. The data set can be described thus: microbe, parasite or virus in culture. In kind it is functional, organism-based, Chlorocebus sabaeus. The settings on record: Severe acute respiratory syndrome coronavirus 2, Vero C1008, 48 h.
Data set [6] has as its system SARS-CoV-2. The data set can be described thus: IC90 for antiviral activity against SARS-CoV-2 in the Vero E6 cell line by measuring infectious viral titer of supernatent from compound-treated Vero E6 cells by Median Tissue Culture Infectious Dose (TCID)50 by the method of Reed and Muench. It counts as functional, Chlorocebus sabaeus. The following applies: Severe acute respiratory syndrome coronavirus 2, Vero C1008.

Data set [7] concerns the target Sigma intracellular receptor 2 (Homo sapiens, UniProt Q5BJF2). The data set can be described thus: Displacement of [3H]-DTG from the Sigma2 receptor.
The target in data set [8] is Sigma non-opioid intracellular receptor 1 (Homo sapiens, UniProt Q99720).
Description: Displacement of [3H]-pentazocin from the Sigma1 receptor
For data set [9], the target named is T1, Muscarinic acetylcholine receptor M4 (Homo sapiens, UniProt P08173).
T1 sequence (P08173 whole entry): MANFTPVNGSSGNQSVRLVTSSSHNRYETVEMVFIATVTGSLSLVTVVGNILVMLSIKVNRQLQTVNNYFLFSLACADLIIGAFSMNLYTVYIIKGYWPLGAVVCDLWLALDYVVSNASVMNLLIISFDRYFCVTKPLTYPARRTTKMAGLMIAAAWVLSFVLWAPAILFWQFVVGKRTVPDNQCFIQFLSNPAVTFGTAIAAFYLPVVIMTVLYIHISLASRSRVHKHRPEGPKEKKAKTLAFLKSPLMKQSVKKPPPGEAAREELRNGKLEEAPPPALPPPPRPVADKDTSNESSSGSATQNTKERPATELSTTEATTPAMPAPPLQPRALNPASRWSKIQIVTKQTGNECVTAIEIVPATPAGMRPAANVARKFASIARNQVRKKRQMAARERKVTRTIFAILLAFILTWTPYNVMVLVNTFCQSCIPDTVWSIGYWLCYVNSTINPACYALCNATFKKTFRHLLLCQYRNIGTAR
In words: Activity of compound against Muscarinic acetylcholine receptor M4 (CHRM4) by displacement of 3H-QNB.

The target in data set [10] is T2, Muscarinic acetylcholine receptor M5 (Homo sapiens, UniProt P08912).
T2 sequence (P08912 whole entry): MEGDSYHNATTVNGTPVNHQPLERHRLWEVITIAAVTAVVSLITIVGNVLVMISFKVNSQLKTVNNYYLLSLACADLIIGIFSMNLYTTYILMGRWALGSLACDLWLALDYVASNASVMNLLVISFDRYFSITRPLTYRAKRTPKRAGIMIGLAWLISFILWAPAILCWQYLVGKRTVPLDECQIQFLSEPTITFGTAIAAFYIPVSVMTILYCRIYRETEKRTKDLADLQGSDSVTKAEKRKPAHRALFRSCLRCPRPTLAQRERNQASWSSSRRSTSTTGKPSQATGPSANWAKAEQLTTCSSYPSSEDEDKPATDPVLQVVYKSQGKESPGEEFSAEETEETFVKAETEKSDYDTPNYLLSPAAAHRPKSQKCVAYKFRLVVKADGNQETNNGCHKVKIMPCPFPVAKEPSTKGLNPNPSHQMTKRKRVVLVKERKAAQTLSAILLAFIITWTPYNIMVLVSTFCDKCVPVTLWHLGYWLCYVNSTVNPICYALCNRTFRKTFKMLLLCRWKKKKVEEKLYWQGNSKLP
The data set can be described thus: Activity of compound against Muscarinic acetylcholine receptor M5 (CHRM5) by displacement of 3H-QNB.

The record followed here is ChEMBL document CHEMBL4303773 (Nature, 2020).

Calls of active or inactive are those of the source. The rule behind the calls is not given here.

Sequence of Sigma intracellular receptor 2 (Q5BJF2 whole entry): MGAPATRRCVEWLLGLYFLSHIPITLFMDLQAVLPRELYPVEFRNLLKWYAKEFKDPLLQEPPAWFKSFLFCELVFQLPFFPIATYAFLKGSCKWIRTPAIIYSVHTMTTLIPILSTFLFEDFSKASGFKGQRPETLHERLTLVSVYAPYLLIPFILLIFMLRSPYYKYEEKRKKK
Sequence of Sigma non-opioid intracellular receptor 1 (Q99720 whole entry): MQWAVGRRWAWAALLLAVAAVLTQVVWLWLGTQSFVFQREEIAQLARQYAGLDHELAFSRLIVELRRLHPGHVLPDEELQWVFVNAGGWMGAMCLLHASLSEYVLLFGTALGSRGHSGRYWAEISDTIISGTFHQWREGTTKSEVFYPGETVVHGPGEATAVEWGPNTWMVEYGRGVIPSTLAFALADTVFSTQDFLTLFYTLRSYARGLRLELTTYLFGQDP

Consider `c1ccc(CNc2nc(NCc3ccccc3)c3ccccc3n2)cc1`, for which, in data set [1], the pCC50 was 5.19.

`Cc1sc2c(c1C)C(c1ccc(Cl)cc1)=N[C@@H](CC(=O)OC(C)(C)C)c1nnc(C)n1-2` showed a CC50 in [2] of around 66.8 nM.

Turning to `Cc1cc(OCCN2CCOCC2)nn1-c1ccc2ccccc2c1`, the CC50 in data set [2] was ~7620 nM (inactive).

In the case of `COC(=O)C1(c2ccc(C)cc2)CC1CN1CCC(O)(c2ccccc2)CC1` (stereo not given), the CC50 in [2] is ~4000 nM (inactive).

`O=C(O)/C(Cc1ccccc1[N+](=O)[O-])=N\Nc1nc(-c2ccc(Cl)c(Cl)c2)cs1` had a pCC50 in data set [1] of 4.32.

As for `COc1cccc2c(NCc3ccccc3)nc(-n3c(N)nc4ccccc43)nc12`, the pCC50 in data set [1] is reported as 2.936. The compound further registered an AUC cytotoxicity in data set [3] of 175.5. The AUC in data set [4] is 223.

As for `COc1ccc(-c2sc(NC(=O)C(C)(C)C)nc2C)cc1S(=O)(=O)Nc1ccc(O)cc1`, the pCC50 in data set [1] is 5.25.

In data set [5], `O=C(c1ccc(-n2nnc3cccnc32)cc1)N(c1ncccc1Cl)[C@@H]1CCCNC1` gave an IC50 of 7590 nM. In addition, the pCC50 in data set [1] was determined as 5.61.

`C[C@@H](C1CCCCC1)n1c(-c2cc3c(cc2Br)OCO3)nc2cc(C(=O)Nc3ccc(C#N)cc3)ccc21`: the CC50 in [2] is ~102 nM (inactive). The compound also returned an AUC cytotoxicity in data set [3] of 261.6. The AUC in data set [4] is 227.

As to `Cc1ncsc1-c1ccc(CNC(=O)[C@@H]2C[C@@H](O)CN2C(=O)[C@@H](NC(=O)COCCOCCOCCNC(=O)C[C@@H]2N=C(c3ccc(Cl)cc3)c3c(sc(C)c3C)-n3c(C)nnc32)C(C)(C)C)cc1`, it took 300 nM to reach half-maximal cytotoxicity in data set [2] (CC50).

In data set [6], `COc1cccc2c1CCCC2CCCN1CCN(C2CCCCC2)CC1` (stereo not given) came in with an IC90 of 278 nM.

Take `COc1cc(OC)c2c(=O)[nH]c(-c3cc(C)c(OCCO)c(C)c3)nc2c1` [APABETALONE]: in data set [2], the CC50 was ~207 nM (inactive). The same compound yielded an AUC cytotoxicity in data set [3] of 281.9. In data set [4], the AUC was 293.

In data set [3], `O=c1[nH]c(=O)n([C@H]2C[C@H](O)[C@@H](CO)O2)cc1/C=C/Br` [BRIVUDINE] displayed an AUC cytotoxicity of 244.3. Besides, the AUC in data set [4] is 255.

As to `CN(C)C(=O)COC(=O)Cc1ccc(OC(=O)c2ccc(NC(=N)N)cc2)cc1` [CAMOSTAT], the CC50 in data set [2] is ~3630 nM (inactive). For the same compound, the AUC cytotoxicity in [3] amounted to 276.3. Also, the AUC in [4] is 251.

Turning to `C[C@H](CS)C(=O)N1CCC[C@H]1C(=O)O` [CAPTOPRIL], the CC50 in data set [2] was ~1230 nM (inactive). Besides, in [3], the AUC cytotoxicity turned out to be 271.9. In addition, the AUC in data set [4] was 276.

With `Cc1cc2c(C(N)=O)cccc2n1-c1nc2c(c(NCc3ccccc3)n1)COCC2` [CB-5083], the AUC in [4] is 280.

In the case of `CCN(CC)CCCC(C)Nc1ccnc2cc(Cl)ccc12` (stereo not given) [CHLOROQUINE], the Ki in data set [7] was 501 nM; in [8] it was 79.4 nM; in [9], 5750 nM; in data set [10], 21900 nM.

For `Clc1ccc(C(OCCN2CCCCC2)c2ccccc2)cc1` (stereo not given) [CLOPERASTINE], the CC50 in data set [2] is ~661 nM (active).

In [5], `COc1cccc2c1C(=O)c1c(O)c3c(c(O)c1C2=O)C[C@@](O)(C(C)=O)C[C@@H]3O[C@H]1C[C@H](N)[C@H](O)[C@H](C)O1` [DAUNORUBICIN] gave an IC50 of around 214 nM.

As to `COc1ccc2c(c1)[C@]13CCCC[C@@H]1[C@H](C2)N(C)CC3` [DEXTROMETHORPHAN], in [2], the CC50 is around 871 nM. The AUC cytotoxicity in data set [3] is 296.5. For the same compound, the AUC in data set [4] was 271.

Regarding `NCCCC[C@H](N[C@@H](CCc1ccccc1)C(=O)O)C(=O)N1CCC[C@H]1C(=O)O` [LISINOPRIL ANHYDROUS], the CC50 in data set [2] is ~8320 nM (inactive).

On to `CC[C@H](C)C(=O)O[C@H]1C[C@@H](C)C=C2C=C[C@H](C)[C@H](CC[C@@H]3C[C@@H](O)CC(=O)O3)[C@H]21` [LOVASTATIN], for which, in data set [1], the pCC50 worked out at 5.4.

`CCNC(=O)c1noc(-c2cc(C(C)C)c(O)cc2O)c1-c1ccc(CN2CCOCC2)cc1` [LUMINESPIB] had a CC50 in data set [2] of around 67.6 nM. Further, the AUC cytotoxicity in data set [3] was 161.6. For the same compound, the AUC in data set [4] was determined as 172.

`CN(C)C(=N)NC(=N)N` [METFORMIN] showed an IC50 in data set [5] of around 2860 nM. The AUC in data set [4] is 293.

Take `N=C(N)Nc1ccc(C(=O)Oc2ccc3cc(C(=N)N)ccc3c2)cc1` [NAFAMOSTAT]: in data set [5], the IC50 is ~39800 nM (inactive). The AUC in data set [4] is 302.

As for `CC(=O)Oc1ccccc1C(=O)Nc1ncc([N+](=O)[O-])s1` [NITAZOXANIDE], in data set [5], half-maximal inhibition (IC50) required 2820 nM.

With `Cc1cc2c(s1)Nc1ccccc1N=C2N1CCN(C)CC1` [OLANZAPINE], the CC50 in data set [2] is ~2880 nM (inactive).

`CC(C)c1cc(C(=O)N2Cc3ccc(CN4CCN(C)CC4)cc3C2)c(O)cc1O` [ONALESPIB] gave a CC50 in data set [2] of around 1.66 nM. Further, the AUC cytotoxicity in data set [3] was found to be 170.7. This compound also returned an AUC in data set [4] of 177.

`Cc1noc2c1-c1ccccc1C(c1ccc(Cl)cc1)=N[C@H]2CC(N)=O` [PELABRESIB]: the CC50 in [2] is ~42.7 nM (inactive). Further, the AUC cytotoxicity in data set [3] stood at 193.2. Also, in data set [4], the AUC was 249.

With `CC(C)CC(=O)N[C@H](C(=O)N[C@H](C(=O)N[C@@H](CC(C)C)[C@@H](O)CC(=O)N[C@@H](C)C(=O)N[C@@H](CC(C)C)[C@@H](O)CC(=O)O)C(C)C)C(C)C` [PEPSTATIN], the CC50 in [2] was ~19.5 nM (inactive). The AUC cytotoxicity in [3] was 262.3. The AUC in data set [4] was 313.

On to `O=c1[nH]c2ccccc2n1C1CCN(CCCC(c2ccc(F)cc2)c2ccc(F)cc2)CC1` [PIMOZIDE], for which, in data set [1], the pCC50 amounted to 6.13.

`CCc1ccc(CCOc2ccc(CC3SC(=O)NC3=O)cc2)nc1` (stereo not given) [PIOGLITAZONE]: the CC50 in [2] was ~3630 nM (inactive). The AUC cytotoxicity in data set [3] is recorded as 236.6. In [4], the AUC is 272.

With `NC(=O)c1ncn([C@@H]2O[C@H](CO)[C@@H](O)[C@H]2O)n1` [RIBAVIRIN], in data set [2], the CC50 was ~21700 nM (inactive).

For the compound `C[C@@H]1CN(CCCn2c3ccccc3c3ccccc32)C[C@H](C)N1` [RIMCAZOLE], the pCC50 in data set [1] worked out at 2.24. The compound also registered an AUC cytotoxicity in data set [3] of 215.6.

As to `N#CC[C@H](C1CCCC1)n1cc(-c2ncnc3[nH]ccc23)cn1` [RUXOLITINIB], the AUC cytotoxicity in data set [3] came out at 248.3. Moreover, the AUC in [4] was 316.

In data set [2], `CC(C)n1nc(-c2ccc3oc(N)nc3c2)c2c(N)ncnc21` [SAPANISERTIB] had a CC50 of 1.24 nM. The AUC cytotoxicity in data set [3] was 102. The AUC in data set [4] was 329.

In turn, `O=C(O)c1ccc2c(c1)nc(Nc1cccc(Cl)c1)c1ccncc12` [SILMITASERTIB] yielded a pCC50 in data set [1] of 5.5. Moreover, the AUC cytotoxicity in data set [3] turned out to be 225.5. Also, in [4], the AUC was 216.

As for `CO[C@H]1C[C@@H]2CC[C@@H](C)[C@@](O)(O2)C(=O)C(=O)N2CCCC[C@H]2C(=O)O[C@H]([C@H](C)C[C@@H]2CC[C@@H](O)[C@H](OC)C2)CC(=O)[C@H](C)/C=C(\C)[C@@H](O)[C@@H](OC)C(=O)[C@H](C)C[C@H](C)/C=C/C=C/C=C/1C` [SIROLIMUS], in data set [2], the CC50 was around 0.479 nM.

In [1], `Cc1cc(Nc2cc(N)ncn2)c(=O)n2c1C(=O)NC21CCCCC1` [TOMIVOSERTIB] had a pCC50 of 5.26. In data set [3], the AUC cytotoxicity was determined as 245.9. For the same compound, the AUC in data set [4] is 231.

Turning to `CCCC(CCC)C(=O)O` [VALPROIC ACID], in data set [3], the AUC cytotoxicity is recorded as 235.1. In addition, the AUC in [4] was 300.

Regarding `COc1cc2c(c(OC)n1)[C@]1(O)[C@H](O)[C@H](CN(C)C)[C@@H](c3ccccc3)[C@]1(c1ccc(C#N)cc1)O2` [ZOTATIFIN], the cytotoxic concentration (CC50) in data set [2] was 5.12 nM (active). In [6], this compound displayed an IC90 of 37 nM.
